Assay results from ChEMBL document CHEMBL6083180, “Design, synthesis, and biological activity of D-bishomo-1α,25-dihydroxyvitamin D3 analogs and their crystal structures with the vitamin D nuclear receptor” (Eur J Med Chem, 2024).
Active and inactive are the calls of the source. No cut-off for these calls is given here.

Columns and labels:
[1] = test system: NCI-H1650; experiment: Antiproliferative activity against human NCI-H1650 cells harboring EGFR mutation incubated for 72 hrs by SRB assay; assay type: functional, cell-based
[2] = test system: Rattus norvegicus; experiment: Induction of calcium mobilization in bone of vitamin D-deficient Sprague-Dawley rat at 2340 pmol, ip administered daily for 4 days; assay type: functional, organism-based; settings: Bone element, time 4.0 day
[3] = test system: HCC4006; experiment: Antiproliferative activity against human HCC4006 cells incubated for 72 hrs by SRB assay; assay type: functional, cell-based; settings: HCC4006, 72 h
[4] = test system: CAL-51; experiment: Antiproliferative activity against human CAL-51 cells incubated for 72 hrs by SRB assay; assay type: functional, cell-based
[5] = test system: MV4-11; experiment: Upregulation of CD14 expression in human MV4-11 cells at 10 nM incubated for 72 hrs; assay type: functional, cell-based
[6] = test system: HL-60; experiment: Antiproliferative activity against human HL-60 cells at 1000 nM incubated for 72 hrs by MTT assay relative to control; assay type: functional
[7] = test system: HCC4006; experiment: Antiproliferative activity against human HCC4006 cells assessed as inhibition of cell proliferation at 10 nM incubated for 72 hrs by SRB assay relative to control; assay type: functional
[8] = test system: MCF-10A; experiment: Antiproliferative activity against human MCF-10A cells incubated for 72 hrs by SRB assay; assay type: toxicity, cell-based
[9] = test system: MCF7; experiment: Antiproliferative activity against human MCF7 cells at 100 nM incubated for 72 hrs by SRB assay relative to control; assay type: functional
[10] = test system: NCI-H1975; experiment: Antiproliferative activity against human NCI-H1975 cells harboring EGFR mutation incubated for 72 hrs by SRB assay; assay type: functional, cell-based
[11] = test system: MV4-11; experiment: Effect on cell cycle distribution in human MV4-11 cells assessed as accumulation at G0/G1 phase at 100 nM incubated for 72 hrs; assay type: functional, cell-based
[12] = test system: MV4-11; experiment: Upregulation of CD11b expression in human MV4-11 cells at 10 nM incubated for 72 hrs; assay type: functional, cell-based
[13] = test system: HCC4006; experiment: Antiproliferative activity against human HCC4006 cells assessed as inhibition of cell proliferation at 1 nM incubated for 72 hrs by SRB assay relative to control; assay type: functional
[14] = test system: MV4-11; experiment: Effect on cell cycle distribution in human MV4-11 cells assessed as decrease in accumulation at G2/M phase at 10 to 1000 nM incubated for 72 hrs; assay type: functional, cell-based; settings: dose 10-1000 nM
[15] = test system: MDA-MB-231; experiment: Antiproliferative activity against human MDA-MB-231 cells incubated for 72 hrs by SRB assay; assay type: functional, cell-based
[16] = test system: MV4-11; experiment: Antiproliferative activity against human MV4-11 cells at 100 nM incubated for 72 hrs by MTT assay relative to control; assay type: functional
[17] = test system: HL-60; experiment: Antiproliferative activity against human HL-60 cells at 100 nM incubated for 72 hrs by MTT assay relative to control; assay type: functional
[18] = test system: MV4-11; experiment: Antiproliferative activity against human MV4-11 cells at 1000 nM incubated for 72 hrs by MTT assay relative to control; assay type: functional
[19] = test system: Rattus norvegicus; experiment: Induction of calcium transport in intestine of vitamin D-deficient Sprague-Dawley rat at 260 pmol, ip administered daily for 4 days; assay type: functional, organism-based; settings: time 4.0 day
[20] = test system: ROS 17/2.8; experiment: Induction of transcriptional activity in rat ROS 17/2.8 cells transfected with CYP24 incubated for 16 hrs by Luciferase reporter gene assay; assay type: functional, cell-based
[21] = test system: Rattus norvegicus; experiment: Induction of calcium mobilization in bone of vitamin D-deficient Sprague-Dawley rat at 780 pmol, ip administered daily for 4 days; assay type: functional, organism-based; settings: Bone element, time 4.0 day
[22] = test system: MV4-11; experiment: Effect on cell cycle distribution in human MV4-11 cells assessed as accumulation at G0/G1 phase at 10 nM incubated for 72 hrs; assay type: functional, cell-based
[23] = test system: MV4-11; experiment: Effect on cell cycle distribution in human MV4-11 cells assessed as accumulation at G0/G1 phase at 1000 nM incubated for 72 hrs; assay type: functional, cell-based
[24] = test system: Rattus norvegicus; experiment: Induction of calcium transport in intestine of vitamin D-deficient Sprague-Dawley rat at 780 pmol, ip administered daily for 4 days; assay type: functional, organism-based; settings: time 4.0 day
[25] = test system: NCI-H226; experiment: Antiproliferative activity against human NCI-H226 cells at 1000 nM incubated for 72 hrs by SRB assay relative to control; assay type: functional
[26] = Antiproliferative activity against human LUDLU-1 cells at 1000 nM incubated for 72 hrs by SRB assay relative to control; assay type: functional
[27] = Antiproliferative activity against human LUDLU-1 cells at 100 nM incubated for 72 hrs by SRB assay relative to control; assay type: functional
[28] = test system: NCI-H226; experiment: Antiproliferative activity against human NCI-H226 cells at 100 nM incubated for 72 hrs by SRB assay relative to control; assay type: functional
[29] = test system: HCC4006; experiment: Antiproliferative activity against human HCC4006 cells assessed as inhibition of cell proliferation at 1000 nM incubated for 72 hrs by SRB assay relative to control; assay type: functional
[30] = test system: HCC4006; experiment: Antiproliferative activity against human HCC4006 cells assessed as inhibition of cell proliferation at 100 nM incubated for 72 hrs by SRB assay relative to control; assay type: functional
[31] = test system: MV4-11; experiment: Antiproliferative activity against human MV4-11 cells at 1 nM incubated for 72 hrs by MTT assay relative to control; assay type: functional
[32] = test system: MV4-11; experiment: Antiproliferative activity against human MV4-11 cells at 10 nM incubated for 72 hrs by MTT assay relative to control; assay type: functional

| SMILES | IC50 [3] | Activity [2] | Activity [4] | Activity [5] | inhibition at 1 µM [6] | inhibition at 0.01 µM [7] | Activity [8] | inhibition at 0.1 µM [9] | Activity [11] | Activity [12] | inhibition at 0.001 µM [13] | Activity [14] | Activity [15] | inhibition at 0.1 µM [16] | inhibition at 0.1 µM [17] | inhibition at 1 µM [18] | Activity [19] | Activity [20] | Activity [22] | Activity [24] | further results |
| --- | --- | --- | --- | --- | --- | --- | --- | --- | --- | --- | --- | --- | --- | --- | --- | --- | --- | --- | --- | --- | --- |
| C[C@H](CCCC(C)(C)O)[C@@H]1CCCC[C@H]2/C(=C/C=C3C[C@@H](O)C(=CCCO)[C@H](O)C3)CCC[C@@]21C | – | – | inactive | Active | 27.5% | 39.1% | – | 21.3% | – | Active | 37.5% | Active | inactive | 25.5% | 22.1% | 32% | Active; Most Potent Compound And Equal In Activity To Calcitriol | Active; Exhibited Higher Potency Than Calcitriol | Active | – | Activity [21]: Active; Most Potent Compound And Equal In Activity To Calcitriol |
| C=C1/C(=C\C=C2/CCC[C@]3(C)[C@@H]([C@H](C)CCCC(C)(C)O)CC[C@@H]23)C[C@@H](O)C[C@@H]1O [CALCITRIOL] | – | – | – | – | 54.9% | 30.4% | – | – | – | – | 10.1% | – | – | 39.8% | 35.9% | 48.8% | – | – | – | – | inhibition at 1 µM [25]: 10%; inhibition at 1 µM [26]: 10%; inhibition at 0.1 µM [27]: 15%; inhibition at 0.1 µM [28]: 15%; inhibition at 1 µM [29]: 17%; inhibition at 0.1 µM [30]: 14% |
| CC1[C@H](O)CC(=C/C=C2\CCC[C@@]3(C)[C@H]2CCCC[C@H]3[C@H](C)CCCC(C)(C)O)C[C@H]1O (some centres undefined) | 82.6 nM | inactive | inactive | inactive | 43.8% | – | – | 29% | – | inactive | – | Active | inactive | 39.7% | 20.5% | 29.7% | – | Not active; Exhibited Equal Or Slightly Less Potency Than Calcitriol; Exhibited Least Activity | – | inactive | Activity [23]: Active |

Second part, led by results:

| IC50 [3] | SMILES | Activity [2] | Activity [4] | Activity [5] | inhibition at 1 µM [6] | inhibition at 0.01 µM [7] | Activity [8] | inhibition at 0.1 µM [9] | Activity [11] | Activity [12] | inhibition at 0.001 µM [13] | Activity [14] | Activity [15] | inhibition at 0.1 µM [16] | inhibition at 0.1 µM [17] | inhibition at 1 µM [18] | Activity [19] | Activity [20] | Activity [22] | Activity [24] | further results |
| --- | --- | --- | --- | --- | --- | --- | --- | --- | --- | --- | --- | --- | --- | --- | --- | --- | --- | --- | --- | --- | --- |
| 27.7 nM | C=C1[C@H](O)CC(=C/C=C2\CCC[C@@]3(C)[C@H]2CCCC[C@H]3[C@H](C)CCCC(C)(C)O)C[C@H]1O | Active; Second Most Potent Compound But Exhibited Less Activity Than Calcitriol | inactive | Active | 47.6% | 44.8% | Non-toxic | 31% | Active | Active; Exhibited Highest Expression | 39.1% | Active | inactive | 32.6% | 35% | 50% | Active; Second Most Potent Compound But Exhibited Less Activity Than Calcitriol | Active; Exhibited Higher Potency Than Calcitriol | – | – | Activity [1]: Active; Maintained Its Activity At Constant Level In Tested Concentration But Without Statistical Significance For Lowest Concentrations; Activity [10]: Active; Maintained Its Activity At Constant Level In Tested Concentration But Without Statistical Significance For Lowest Concentrations |
| 45.2 nM | C[C@H](CCCC(C)(C)O)[C@@H]1CCCC[C@H]2/C(=C/C=C3C[C@@H](O)C[C@H](O)C3)CCC[C@@]21C | inactive | inactive | Active; Exhibited Highest Expression | 24.2% | – | Non-toxic | 30.8% | Active | Active | – | Active | inactive | 25.3% | 17.9% | 31.2% | – | Active; Exhibited Equal Or Slightly Less Potency Than Calcitriol | Active | inactive | Activity [23]: Active |
| 49.6 nM | C=C1/C(=C\C=C2/CCC[C@@]3(C)[C@H]2CCCC[C@H]3[C@H](C)CCCC(C)(C)O)C[C@@H](O)C[C@@H]1O | – | inactive | Active | 39.7% | – | – | 37.9% | Active | Active | – | Active | inactive | 44.2% | 17.1% | 42.8% | – | Active; Exhibited Higher Potency Than Calcitriol | Active | inactive | inhibition at 0.001 µM [31]: 23.7%; Activity [21]: inactive; inhibition at 0.01 µM [32]: 41% |
